From patent publication US10278988B2, “Reducing the proliferation of carcinoma cells by administration of a poly-oxygenated metal hydroxide” (priority 2016, dated 2019) come the findings set out here.

For the series, the system named is mammal. The conditions noted are these: in vivo.

As to “poly-oxygenated aluminum hydroxide [Ox66™]”, the “negative effects in toxicology studies” value was “does not create any negative effects”.
